Data as given in ChEMBL document CHEMBL1201862, “PubChem BioAssay data set” (2004).
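Protocol summary: plate cells (96-well), add compound at 5 concentrations, incubate 48 h, interpolate endpoints linearly. Abbreviation: GI50, concentration required for 50% inhibition of growth.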 Activity calls are given as the source filed them. Rule as the data show it: active = GI50 up to about 1.1 µM and inactive = higher.

How the values were obtained:
Test in all cases: NCI-60 cell line screen, 48 h
[1] = test system: A498
[2] = test system: CCRF-CEM
[3] = test system: HCT-116
[4] = test system: HCT-15
[5] = test system: HOP-92
[6] = test system: HT-29
[7] = test system: Hs-578T
[8] = test system: IGROV-1
[9] = test system: KM12
[10] = test system: M14
[11] = test system: MDA-MB-231
[12] = test system: MDA-MB-435
[13] = test system: Malme-3M
[14] = test system: NCI-H226
[15] = test system: NCI-H460
[16] = test system: OVCAR-8
[17] = test system: PC-3
[18] = test system: SF-295
[19] = test system: SW-620
[20] = test system: U-251

| SMILES | GI50 [1] | GI50 [2] | GI50 [3] | GI50 [4] [µM] | GI50 [5] | GI50 [6] | GI50 [7] | GI50 [8] | GI50 [9] | GI50 [10] | GI50 [11] | GI50 [12] | GI50 [13] | GI50 [14] | GI50 [15] | GI50 [16] | GI50 [17] | GI50 [18] | GI50 [19] | GI50 [20] |
| --- | --- | --- | --- | --- | --- | --- | --- | --- | --- | --- | --- | --- | --- | --- | --- | --- | --- | --- | --- | --- |
| Cc1ccc2c(O)cc(-c3csc4ccccc34)nc2n1 | < 0.01 µM (active) | < 0.01 µM (active) | < 0.0104 µM (active) | < 0.0151 | 0.321 µM (active) | 0.0173 µM (active) | 0.0101 µM (active) | 0.0362 µM (active) | < 0.01 µM (active) | < 0.01 µM (active) | 0.021 µM (active) | < 0.01 µM (active) | < 0.01 µM (active) | 0.0174 µM (active) | < 0.0161 µM (active) | 0.0202 µM (active) | < 0.01 µM (active) | < 0.01 µM (active) | < 0.01 µM (active) | < 0.01 µM (active) |
| Clc1ccc2c(SCC3CO3)c3ccccc3nc2c1 (stereo not given) | 17.3 µM (inactive) | 2.43 µM (inactive) | 1.66 µM (inactive) | 1.68 | 2.12 µM (inactive) | 1.64 µM (inactive) | 2.72 µM (inactive) | 1.33 µM (inactive) | 1.7 µM (inactive) | 1.72 µM (inactive) | 2.33 µM (inactive) | 3.15 µM (inactive) | 2.04 µM (inactive) | 22.9 µM (inactive) | 4.27 µM (inactive) | 2.19 µM (inactive) | 2.65 µM (inactive) | 16.5 µM (inactive) | 1.92 µM (inactive) | 1.84 µM (inactive) |
| CC(CC(C#N)(c1ccccc1)c1ccccc1)N1CCCCC1 (stereo not given) | 21.6 µM (inactive) | 23.6 µM (inactive) | 19.9 µM (inactive) | 22.9 | 31.9 µM (inactive) | 18.3 µM (inactive) | 27.3 µM (inactive) | 43.2 µM (inactive) | 18.1 µM (inactive) | 19 µM (inactive) | 25.7 µM (inactive) | 19.1 µM (inactive) | 17.3 µM (inactive) | 20.7 µM (inactive) | 16 µM (inactive) | 42.1 µM (inactive) | 32.6 µM (inactive) | 20 µM (inactive) | 19.2 µM (inactive) | 29.6 µM (inactive) |
| CSc1nc(SC)c2c(CN=[N+]=[N-])c(Br)n(Cc3ccccc3)c2n1 | > 100 µM (inactive) | 72.6 µM (inactive) | 45.6 µM (inactive) | > 100 | 15 µM (inactive) | 23 µM (inactive) | 53.1 µM (inactive) | > 100 µM (inactive) | > 100 µM (inactive) | > 100 µM (inactive) | 52.7 µM (inactive) | 55.7 µM (inactive) | > 100 µM (inactive) | 83.8 µM (inactive) | > 100 µM (inactive) | > 100 µM (inactive) | > 100 µM (inactive) | 36.1 µM (inactive) | > 100 µM (inactive) | 71.9 µM (inactive) |
| NCCCCC(N)C(=O)NCCNc1ccc(NCCNC(=O)C(N)CCCCN)c2c1C(=O)c1ccccc1C2=O (stereo not given) | 46.5 µM (inactive) | 31.9 µM (inactive) | 17.3 µM (inactive) | > 83.8 | 5.27 µM (inactive) | 50.7 µM (inactive) | 8.38 µM (inactive) | > 100 µM (inactive) | > 81.3 µM (inactive) | > 100 µM (inactive) | 34 µM (inactive) | 98.6 µM (inactive) | > 100 µM (inactive) | > 21.7 µM (inactive) | 9.06 µM (inactive) | 5.9 µM (inactive) | 81.1 µM (inactive) | > 100 µM (inactive) | 71.8 µM (inactive) | 35 µM (inactive) |
| Cc1ccc(NC(=O)c2cc(S(=O)(=O)Nc3n[nH]c(=O)[nH]3)c(SSc3cc(Cl)c(C(=O)Nc4ccc(C)cc4)cc3S(=O)(=O)Nc3n[nH]c(=O)[nH]3)cc2Cl)cc1 | > 100 µM (inactive) | > 100 µM (inactive) | > 100 µM (inactive) | > 100 | > 100 µM (inactive) | > 100 µM (inactive) | > 100 µM (inactive) | > 100 µM (inactive) | > 100 µM (inactive) | > 100 µM (inactive) | > 100 µM (inactive) | > 100 µM (inactive) | > 100 µM (inactive) | > 100 µM (inactive) | > 100 µM (inactive) | > 100 µM (inactive) | > 100 µM (inactive) | > 100 µM (inactive) | > 100 µM (inactive) | > 100 µM (inactive) |
| O=C1/C(=C\c2ccc(Cl)cc2Cl)Sc2scc(-c3cccc([N+](=O)[O-])c3)[n+]21 | 49 µM (inactive) | 0.291 µM (active) | 5.2 µM (inactive) | 1.81 | 5.89 µM (inactive) | 3.28 µM (inactive) | 24.7 µM (inactive) | 6.31 µM (inactive) | 11.6 µM (inactive) | 6.04 µM (inactive) | 9.14 µM (inactive) | 10 µM (inactive) | 8.11 µM (inactive) | 13.5 µM (inactive) | 13.1 µM (inactive) | 8.15 µM (inactive) | 15.6 µM (inactive) | 24.9 µM (inactive) | 3.62 µM (inactive) | 13.9 µM (inactive) |
| O=[N+]([O-])c1ccc(Cl)cc1-n1nc(-c2ccccc2)cc1-c1ccccc1 | > 100 µM (inactive) | > 100 µM (inactive) | 99.8 µM (inactive) | > 100 | > 100 µM (inactive) | 97.3 µM (inactive) | 81.3 µM (inactive) | > 100 µM (inactive) | > 100 µM (inactive) | > 100 µM (inactive) | > 100 µM (inactive) | > 100 µM (inactive) | > 100 µM (inactive) | > 100 µM (inactive) | > 100 µM (inactive) | > 100 µM (inactive) | > 100 µM (inactive) | > 100 µM (inactive) | > 100 µM (inactive) | > 100 µM (inactive) |
| CSC1=C(C#N)C(=O)N(c2ccc(C)cc2)C(=S)C1C#N (stereo not given) | > 100 µM (inactive) | > 100 µM (inactive) | > 100 µM (inactive) | > 100 | 33.4 µM (inactive) | > 100 µM (inactive) | > 100 µM (inactive) | > 100 µM (inactive) | > 100 µM (inactive) | > 100 µM (inactive) | > 100 µM (inactive) | > 100 µM (inactive) | > 100 µM (inactive) | > 100 µM (inactive) | > 100 µM (inactive) | > 100 µM (inactive) | > 100 µM (inactive) | > 100 µM (inactive) | > 100 µM (inactive) | > 100 µM (inactive) |
| CC1(CCCO)CCCCCCCCCC(C)(CCCO)C1=O (stereo not given) | > 100 µM (inactive) | 55 µM (inactive) | 94 µM (inactive) | > 100 | > 100 µM (inactive) | > 100 µM (inactive) | > 100 µM (inactive) | > 100 µM (inactive) | > 100 µM (inactive) | > 100 µM (inactive) | > 100 µM (inactive) | > 100 µM (inactive) | > 100 µM (inactive) | > 100 µM (inactive) | > 100 µM (inactive) | > 100 µM (inactive) | > 100 µM (inactive) | > 100 µM (inactive) | > 100 µM (inactive) | > 100 µM (inactive) |
| [O-][N+]1=NC(c2ccccc2)=C1c1ccccc1 | > 50 µM (inactive) | > 50 µM (inactive) | > 50 µM (inactive) | > 50 | > 50 µM (inactive) | > 50 µM (inactive) | > 50 µM (inactive) | > 50 µM (inactive) | > 50 µM (inactive) | > 50 µM (inactive) | > 50 µM (inactive) | > 50 µM (inactive) | > 50 µM (inactive) | > 50 µM (inactive) | > 50 µM (inactive) | > 50 µM (inactive) | > 50 µM (inactive) | > 50 µM (inactive) | > 50 µM (inactive) | > 50 µM (inactive) |
| O=C(Oc1cccc2cccnc12)c1cc2cc(CCl)ccc2oc1=O | 48.8 µM (inactive) | 0.277 µM (active) | 3.4 µM (inactive) | 2.77 | 34.2 µM (inactive) | 8.09 µM (inactive) | 46.2 µM (inactive) | 24.4 µM (inactive) | 24 µM (inactive) | 5.64 µM (inactive) | 27.1 µM (inactive) | 10.8 µM (inactive) | 15.7 µM (inactive) | 75.9 µM (inactive) | 10.9 µM (inactive) | 34 µM (inactive) | 12.7 µM (inactive) | 37.4 µM (inactive) | 4.56 µM (inactive) | 24.3 µM (inactive) |
| CC(=O)O[C@H]1C(=O)[C@@]2(C)[C@H]([C@H](OC(=O)c3ccccc3)[C@]3(O)C[C@H](OC(=O)[C@H](O)[C@@H](NC(=O)c4ccccc4)c4ccccc4C)C(C)=C1C3(C)C)[C@]1(OC(C)=O)CO[C@@H]1C[C@@H]2O | 0.444 µM (active) | 0.376 µM (active) | 0.177 µM (active) | 6.38 | 2.13 µM (inactive) | 0.13 µM (active) | 0.222 µM (active) | 0.449 µM (active) | 0.163 µM (active) | 0.55 µM (active) | 3.18 µM (inactive) | 0.07 µM (active) | 1.66 µM (inactive) | 1.71 µM (inactive) | 0.811 µM (active) | 1.41 µM (inactive) | 0.258 µM (active) | 1.16 µM (inactive) | 0.351 µM (active) | 0.361 µM (active) |
| Cc1c2cc[n+](C)cc2c(C)c2c1oc1ccccc12 | 42.9 µM (inactive) | 3.18 µM (inactive) | 6.43 µM (inactive) | > 87.3 | 6.5 µM (inactive) | 14.4 µM (inactive) | 0.54 µM (active) | 4.74 µM (inactive) | 1.62 µM (inactive) | 14.6 µM (inactive) | 12.9 µM (inactive) | 7.83 µM (inactive) | 1.6 µM (inactive) | 2.19 µM (inactive) | 3.24 µM (inactive) | 1.67 µM (inactive) | 6.38 µM (inactive) | 1.69 µM (inactive) | 3 µM (inactive) | 0.652 µM (active) |
